Measurements from patent publication US20240174603A1 (Rappta Therapeutics Oy, priority 2021, published 2024).

Tested on: LNCaP cells
Assay: LNCaP cell viability assay (MTS)
Format: cell-based
Settings: Homo sapiens, LNCaP, 48 h, LNCaP cell line
Experimental: LNCaP cell line was used for the cell viability assay. LNCaP cells were plated in 96-well plates at a density of 5000 cells per well. After 24 hours of plating, the cells were treated with increasing doses of compound (e.g., compounds 1-269) ranging from 1 μM to 80 μM. Relative cell numbers were analyzed after 48 hours using 3-(4,5-dimethylthiazol-2-yl)-5-(3-carboxymethoxyphenyl)-2-(4-sulfophenyl)-2H-tetrazolium (MTS) assay (Promega) according to the manufacturer's instructions.
The cell viability data was analyzed with GraphPad Prism software. The values were log transformed and analyzed with non-linear regression (curve-fit) using log(inhibitor) vs. response-variable slope (four parameters) and constraining the bottom to equal zero. Unless otherwise indicated, the GI50 values provided in Table 113 correspond to the LNCaP cell viability assays.

First: CN(C)CC(NS(=O)(=O)c1ccc2c(c1)OC(F)(F)O2)c1ccc(Cl)c(Cl)c1 (stereo not shown) [Compound 156, N-(1-(3,4-dichlorophenyl)-2-(dimethylamino)ethyl)-2,2-difluorobenzo[d][1,3]dioxole-5-sulfonamide]
Second: CN(C)CC(NS(=O)(=O)c1cccc(F)c1)c1ccc(Cl)c(Cl)c1 (stereo not shown) [Compound 129, N-(1-(3,4-dichlorophenyl)-2-(dimethylamino)ethyl)-3-fluorobenzenesulfonamide]
The GI50 of the first is 2.8-fold lower: 24.9 µM for the first, 69.9 µM for the second.

Going from `COC(c1ccccc1Cl)C(C)NS(=O)(=O)c1ccc(OC(F)(F)F)cc1` (stereo not shown) [Compound 20, N-(1-(2-chlorophenyl)-1-methoxypropan-2-yl)-4-(trifluoromethoxy)benzenesulfonamide] to `CC(C)N(C)c1ccccc1CNS(=O)(=O)c1ccc(OC(F)(F)F)cc1` [Compound 58, N-(2-(isopropyl(methyl)amino)benzyl)-4-(trifluoromethoxy)benzenesulfonamide], the GI50 falls from 50.9 µM to 20 µM (2.5-fold).

Going from `CN(C)CC(NS(=O)(=O)c1ccc(OC(F)F)cc1)c1ccc(Cl)c(Cl)c1` (stereo not shown) [Compound 153, N-(1-(3,4-dichlorophenyl)-2-(dimethylamino)ethyl)-4-(difluoromethoxy)benzenesulfonamide] to `CN(C)CC(NS(=O)(=O)c1ccc(OC(F)(F)F)cc1)c1ccc(Cl)c(Cl)c1` (stereo not shown) [Compound 147, N-(1-(3,4-dichlorophenyl)-2-(dimethylamino)ethyl)-4-(trifluoromethoxy)benzenesulfonamide], the GI50 falls from 45.7 µM to 19.5 µM (2.3-fold).

Going from `CN(C)CC(NS(=O)(=O)c1ccc(Oc2ccccc2C(F)(F)F)cc1)c1ccc(Cl)c(Cl)c1` (stereo not shown) [Compound 238, N-(1-(3,4-dichlorophenyl)-2-(dimethylamino)ethyl)-4-(2-(trifluoromethyl)phenoxy)benzenesulfonamide] to `CN(C)CC(NS(=O)(=O)c1ccc(Oc2ccccc2)cc1)c1ccc(Cl)c(Cl)c1` (stereo not shown) [Compound 138, N-(1-(3,4-dichlorophenyl)-2-(dimethylamino)ethyl)-4-phenoxybenzenesulfonamide], the GI50 falls from 21.9 µM to 10.5 µM (2.1-fold).

`CN(C)CC(NS(=O)(=O)c1ccc(OC(F)(F)F)cc1N)c1ccc(Cl)c(Cl)c1` (stereo not shown) [Compound 155, 2-amino-N-(1-(3,4-dichlorophenyl)-2-(dimethylamino)ethyl)-4-(trifluoromethoxy)benzenesulfonamide] and `CN(C)CC(NS(=O)(=O)c1ccc(OC(F)(F)F)c(Cl)c1)c1ccc(Cl)c(Cl)c1` (single isomer, unassigned) [Compound 201, 3-chloro-N-(1-(3,4-dichlorophenyl)-2-(dimethylamino)ethyl)-4-(trifluoromethoxy)benzenesulfonamide] are within 1.5-fold of each other in GI50: 21.3 µM for the first, 22.8 µM for the second.

`O=S(=O)(NCc1ccccc1N1CCCC1)c1ccc(OC(F)(F)F)cc1` [Compound 30, N-(2-(pyrrolidin-1-yl)benzyl)-4-(trifluoromethoxy)benzenesulfonamide] and `CC1CCN(C(CNS(=O)(=O)c2ccc(OC(F)(F)F)cc2)c2ccco2)CC1` (stereo not shown) [Compound 31, N-(2-(furan-2-yl)-2-(4-methylpiperidin-1-yl)ethyl)-4-(trifluoromethoxy)benzenesulfonamide] are within 1.5-fold of each other in GI50: 49.7 µM for the first, 45.9 µM for the second.

`CN(C)CC(NS(=O)(=O)c1ccc(NC2CCC2)cc1)c1ccc(Cl)c(Cl)c1` (stereo not shown) [Compound 252, 4-(cyclobutylamino)-N-(1-(3,4-dichlorophenyl)-2-(dimethylamino)ethyl)benzenesulfonamide] and `CN(C)CC(NS(=O)(=O)c1ccc(C2CCCCO2)cc1)c1ccc(Cl)c(Cl)c1` (stereo not shown) [Compound 239, N-(1-(3,4-dichlorophenyl)-2-(dimethylamino)ethyl)-4-(tetrahydro-2H-pyran-2-yl)benzenesulfonamide] are within 1.5-fold of each other in GI50: 22.8 µM for the first, 28.2 µM for the second.

Compared with `CCCc1ccc(S(=O)(=O)NC(CN(C)C)c2ccc(Cl)c(Cl)c2)cc1` (single isomer, unassigned) [Compound 199, N-(1-(3,4-dichlorophenyl)-2-(dimethylamino)ethyl)-4-propylbenzenesulfonamide], `CN(C)CC(NS(=O)(=O)c1cccc(Cl)c1)c1ccc(Cl)c(Cl)c1` (stereo not shown) [Compound 163, 3-chloro-N-(1-(3,4-dichlorophenyl)-2-(dimethylamino)ethyl)benzenesulfonamide] is 3.2-fold higher in GI50: 14.4 µM for the first, 46 µM for the second.

Going from `CCC[C@@H](NS(=O)(=O)c1ccc(OC(F)(F)F)cc1)c1ccc2c(c1)OCO2` [Compound 73, (R)—N-(1-(benzo[d][1,3]dioxol-5-yl)butyl)-4-(trifluoromethoxy)benzenesulfonamide] to `CC1CC1C(NS(=O)(=O)c1ccc(OC(F)(F)F)cc1)c1ccccc1` (stereo not shown) [Compound 103, N-((2-methylcyclopropyl)(phenyl)methyl)-4-(trifluoromethoxy)benzenesulfonamide], the GI50 falls from 38 µM to 20 µM (1.9-fold).

`O=[N+]([O-])c1cc(S(=O)(=O)NCC2(c3ccc(Cl)c(Cl)c3)CC2)ccc1OC(F)(F)F` [Compound 232, N-((1-(3,4-dichlorophenyl)cyclopropyl)methyl)-3-nitro-4-(trifluoromethoxy)benzenesulfonamide] and `CN(C)CC(NS(=O)(=O)c1ccc(C(F)(F)F)c([N+](=O)[O-])c1)c1ccc(Cl)c(Cl)c1` (stereo not shown) [Compound 266, N-(1-(3,4-dichlorophenyl)-2-(dimethylamino)ethyl)-3-nitro-4-(trifluoromethyl)benzenesulfonamide] are within 1.5-fold of each other in GI50: 31.1 µM for the first, 41.9 µM for the second.

Compared with `CC1CCCCC1OCCNS(=O)(=O)c1ccc(OC(F)(F)F)cc1` (stereo not shown) [Compound 95, N-(2-((2-methylcyclohexyl)oxy)ethyl)-4-(trifluoromethoxy)benzenesulfonamide], `COCCC1(CNS(=O)(=O)c2ccc(OC(F)(F)F)cc2)CCCCC1` [Compound 53, N-((1-(2-methoxyethyl)cyclohexyl)methyl)-4-(trifluoromethoxy)benzenesulfonamide] is 4.4-fold higher in GI50: 15 µM for the first, 66 µM for the second.

Compared with `CN(C)CC(NS(=O)(=O)c1ccc(OC(F)(F)F)c(Cl)c1)c1ccc(Cl)c(Cl)c1` (stereo not shown) [Compound 152, 3-chloro-N-(1-(3,4-dichlorophenyl)-2-(dimethylamino)ethyl)-4-(trifluoromethoxy)benzenesulfonamide], `CN(C)CC(NS(=O)(=O)c1ccc(OC(F)(F)F)c(C#N)c1)c1ccc(Cl)c(Cl)c1` (stereo not shown) [Compound 240, 3-cyano-N-(1-(3,4-dichlorophenyl)-2-(dimethylamino)ethyl)-4-(trifluoromethoxy)benzenesulfonamide] is 2-fold higher in GI50: 12.1 µM for the first, 24.6 µM for the second.

First: COc1ccc(C)cc1CC(NS(=O)(=O)c1ccc(OC(F)(F)F)cc1)C(C)C (stereo not shown) [Compound 18, N-(1-(2-methoxy-5-methylphenyl)-3-methylbutan-2-yl)-4-(trifluoromethoxy)benzenesulfonamide]
Second: COC(=O)C(Cc1ccc(O)c(F)c1)NS(=O)(=O)c1ccc(OC(F)(F)F)cc1 (stereo not shown) [Compound 112, Methyl 3-(3-fluoro-4-hydroxyphenyl)-2-((4-(trifluoromethoxy)phenyl)sulfonamido)propanoate]
The GI50 of the first is 2-fold higher: 76.7 µM for the first, 38 µM for the second.

First: CCOC(=O)[C@@H](Cc1ccc(OC)cc1)NS(=O)(=O)c1ccc(OC(F)(F)F)cc1 [Compound 43, Ethyl (R)-3-(4-methoxyphenyl)-2-((4-(trifluoromethoxy)phenyl)sulfonamido)propanoate]
Second: CC1CCCC(CNS(=O)(=O)c2ccc(OC(F)(F)F)cc2)(N(C)C)C1 (stereo not shown) [Compound 99, N-((1-(dimethylamino)-3-methylcyclohexyl)methyl)-4-(trifluoromethoxy)benzenesulfonamide]
The GI50 of the first is 1.6-fold higher: 72 µM for the first, 45 µM for the second.
